Assays:
[1] = system: male Long Evans rats; assay: Novel Object Recognition; format: in vivo; conditions: 0.5 mg/kg injected 30 minutes prior to T1; Trial 2 48 hours after Day 2
Protocol: (§1) Novel Object Recognition is impaired in several disorders of memory including Alzheimer's disease, schizophrenia, mild cognitive impairment (MCI), stroke, amongst others. In rodents, […] is used extensively to examine the effects of drugs on this form of memory. An ERβ agonist, 7-bromo-2-(4-hydroxyphenyl)-1,3-benzoxazol-5-ol, was tested on this form of memory. In the habituation stage (Day 1), the rats, male Long Evans are habituated for 10 minutes each to an arena that contains 2 identical objects (YY). On trial 1 (Day 2), the arena is set up with a different set of identical objects (e.g., BB) and the animals are allowed to spend 5 minutes sniffing each objects. Thirty (30) minutes prior to T1, animals were injected with 7-bromo-2-(4-hydroxyphenyl)-1,3-benzoxazol-5-ol.

[2] = system: ovariectomized female rats; assay: Working memory, radial arm maze win-shift task; format: in vivo; conditions: OVX rats; estradiol benzoate 0.02 mg/kg s.c. in oil for 2 days; ERβ and ERα agonists 10 mg/kg for 6 days
From the text: Cognitive symptoms of memory, including those from Alzheimer's disease and stroke, can be evaluated by such models as the Fear Conditioning Paradigm (Gould T J et al., 2002 Behav Pharmacol. 13(4):287-94; Hamm A O et al., 2003 Brain 126(Pt 2):267-75) and Radial Arm Test (Aggleton J P et al., 1996 Behav Brain Res. 19(2):133-46), while spatial reference memory and learning can be evaluated in the Morris watermaze (Bontempi B et al., 1996 Eur J Neurosci. 8(11):2348-60). Additionally, memory and hippocampal hypo-functioning can be assessed by measuring the restoration of synaptic plasticity in ovariectomized (OVX) female rats. (Day and Good, 2005 Jan., Neurobiol Learn Mem., 83(1): 13-21). Further, changes in attention function because of schizophrenia can be examined by the five (5) Choice Serial Reaction Time Test (5CSRT) (see Muir J L, et al., 1995 Psychopharmacology (Berl) 118(1): 82-92; Robbins et al., 1998 Ann N Y Acad Sci. 846:222-37).
Female rats were habituated to a water deprivation schedule and to the radial maze for at least one week prior to acquisition. The rats were ovariectomized six to eight (6-8) weeks before testing. Subjects were then treated with either estradiol benzoate (0.02 mg/kg), the ERfl agonist, 7-bromo-2-(4-hydroxyphenyl)-1,3-benzoxazol-5-ol, or an ERα agonist. […]

[3] = system: aged rats (15 months); assay: Mild cognitive impairment model: CREB levels and Novel Object Recognition in aged rats; format: in vivo; conditions: single injection 1 mg/kg 30 minutes prior to testing, compared to young 3 month old rats
Protocol: as §1
cAMP-response-element-binding protein (CREB) is expressed in all cells in the brain and is a member of a family of proteins that function as transcription factors. […] Aged animals show marked decreases in CREB activation and memory; and this decline in cognition in aged rats is a useful model of mild cognitive impairment seen in humans. As such, an ERβ agonist, 7-bromo-2-(4-hydroxyphenyl)-1,3-benzoxazol-5-ol, was tested on this form of recognition memory. […]

[4] = system: Male C56/BL6 mice; assay: Apomorphine induced climbing (AIC) in pretreated male mice; format: in vivo; conditions: for attenuation / blockade of apomorphine induced climbing (AIC): male mice pretreated for 3 consecutive days, estradiol benzoate 0.1, 0.3 and 1 mg/kg, at 24 and 48 hours
From the text: Patients can be evaluated for cognitive diseases or disorders by any of the tests known in the art. Preclinically, animals can be evaluated for blockade/attenuation of symptoms associated with schizophrenia. Positive symptoms in animal models of schizophrenia can be evaluated by measuring changes in the overall level of activity of dopamine (DA) activity with concomitant parallel changes in locomotor activity (Depoortere R et al., 2003 Neuropsychopharmacology 28(11):1889-902), D-amphetamine (AMPH) and phencyclidine (PCP) via induction of model psychosis or locomotor hyperactivity (Freed W J et al., 1984 Neuropharmacology 23(2A):175-81; Sams-Dodd, F. 1998 Neuropsychopharmacology 19(1): 18-25). For example, Depoortere et al. have described tests for evaluating locomotor activity, catalepsy, climbing and stereotypy, which relate to positive symptomology and side effect profile, by characterizing compounds with typical and atypical antipsychotic efficacy (2003). Attenuation in apomorphine-induced climbing, stereotypy and catalepsy (AIC) can be evaluated as described by Fung Y K et al. 1986 Pharmacol Biochem Behav. 1986 24(1):139-41 and Fung, et aL, 1987 Steroids 49(4-5):287-94. Additionally, negative symptoms of schizophrenia can be evaluated by measuring social interaction under the influence of NMDA antagonists such as PCP (Sams-Dodd F 1998).
Male C56/BL6 mice were pretreated with estradiol benzoate 0.1, 0.3 and 1 mg/kg and an estrogen beta agonist, 7-bromo-2-(4-hydroxyphenyl)-1,3-benzoxazol-5-ol for three (3) consecutive days, and then evaluated for locomotor activity, catalepsy, AIC and stereotypy. Estradiol benzoate attenuated AIC at 24 and 48 hours (approximately 55%), while the estrogen beta agonist, 7-bromo-2-(4-hydroxyphenyl)-1,3-benzoxazol-5-ol, outperformed estradiol benzoate by inducing a sixty percent (60%) blockade of AIC in the male mice.

[5] = system: hippocampal CA1 region; assay: Synaptic plasticity (LTD/LTP) in the hippocampal CA1 region after ovariectomy; format: in vivo, rats; conditions: chronic replacement, injection every 48 hours over 5 weeks
From the text: In Experiment 1, ovariectomy carried out either five (5) days or five (5) weeks before testing impaired the induction of long-term depression (LTD), but not long-term potentiation (LTP). […] The findings are discussed with reference to (1) the contribution of Ca^2+ regulated synaptic signaling pathways in the CA1 region to estradiol modulation of LTP and LTD and (2) the potential functional significance of ovariectomy-induced changes in synaptic plasticity for learning and memory processes. […] Restoration of impaired synaptic plasticity of ovariectomized female rats following estrogen treatment can be evaluated by the protocol used by Day and Good, January 2005, Neurobiol Learn Mem., 83(1): 13-21.

[6] = system: young men diagnosed with severe schizophrenia; conditions: 33 young men, small doses for two weeks; cited from earlier work
[7] = system: βERKO female mice; assay: Phencyclidine (PCP) induced locomotor activity (LMA) during PCP withdrawal; format: in vivo; conditions: 0.3 mg/kg on day 5, sub-effective PCP dose after 4 day withdrawal
Protocol: Animals were treated for five (5) days with PCP. Following this period, the animals were given a 4 day withdrawal period. One group received 0.3mg/kg estradiol benzoate on day 5. […] Thus, the classic estrogen agonist, estradiol benzoate, effectively blocks the effects of PCP on LMA, with other ERβ agonists likely to behave similarly.

[8] = system: male mice; conditions: cited from earlier work

## Oc1ccc(-c2nc3cc(O)cc(Br)c3o2)cc1 [7-bromo-2-(4-hydroxyphenyl)-1,3-benzoxazol-5-ol]
[1]
  time investigating the novel object versus the familiar object in Trial 2: significantly improved
[2]
  working memory in the radial arm maze: improved working memory
[3]
  CREB levels: restored the CREB levels
  memory in the NOR method: increased memory
[4]; 3 days of treatment
  blockade of AIC compared with estrogen treatment (FIG. 1): more profound blockade of AIC
[4]
  attenuation / blockade of apomorphine induced climbing (AIC): 60%

## C[C@]12CC[C@@H]3c4ccc(O)cc4CC[C@H]3[C@@H]1CC[C@@H]2O [17β-estradiol]
[5]
  induction of LTP: no effect on the induction of LTP
  magnitude of paired-pulse induced LTD in the CA1 region: enhanced the magnitude of paired-pulse induced LTD
[6]
  hallucinations and delusions: significant decline in hallucinations and delusions

## C[C@]12CC[C@@H]3c4ccc(OC(=O)c5ccccc5)cc4CC[C@H]3[C@@H]1CC[C@@H]2O [estradiol benzoate]
[2]
  working memory in the radial arm maze: improved working memory
[7]
  effect on PCP induced LMA: successfully blocked the effect of PCP induced LMA
[8]
  effect on apomorphine induced climbing: attenuate apomorphine induced climbing
[4]
  attenuation / blockade of apomorphine induced climbing (AIC): approximately 55%

Reference: patent US20060135574A1, “Novel uses for estrogen beta agonists” (Wyeth, priority 2004, published 2006)
